Common to all, as to assay: Kinase panel profiling at 1 µmol/L (MSA or IMAP), percentage inhibition
Holding throughout (format): biochemical

Experiment [1] has as its target T1, panel of 255 wild-type kinases (Homo sapiens, UniProt P29323).
T1 sequence (P29323 19-1055): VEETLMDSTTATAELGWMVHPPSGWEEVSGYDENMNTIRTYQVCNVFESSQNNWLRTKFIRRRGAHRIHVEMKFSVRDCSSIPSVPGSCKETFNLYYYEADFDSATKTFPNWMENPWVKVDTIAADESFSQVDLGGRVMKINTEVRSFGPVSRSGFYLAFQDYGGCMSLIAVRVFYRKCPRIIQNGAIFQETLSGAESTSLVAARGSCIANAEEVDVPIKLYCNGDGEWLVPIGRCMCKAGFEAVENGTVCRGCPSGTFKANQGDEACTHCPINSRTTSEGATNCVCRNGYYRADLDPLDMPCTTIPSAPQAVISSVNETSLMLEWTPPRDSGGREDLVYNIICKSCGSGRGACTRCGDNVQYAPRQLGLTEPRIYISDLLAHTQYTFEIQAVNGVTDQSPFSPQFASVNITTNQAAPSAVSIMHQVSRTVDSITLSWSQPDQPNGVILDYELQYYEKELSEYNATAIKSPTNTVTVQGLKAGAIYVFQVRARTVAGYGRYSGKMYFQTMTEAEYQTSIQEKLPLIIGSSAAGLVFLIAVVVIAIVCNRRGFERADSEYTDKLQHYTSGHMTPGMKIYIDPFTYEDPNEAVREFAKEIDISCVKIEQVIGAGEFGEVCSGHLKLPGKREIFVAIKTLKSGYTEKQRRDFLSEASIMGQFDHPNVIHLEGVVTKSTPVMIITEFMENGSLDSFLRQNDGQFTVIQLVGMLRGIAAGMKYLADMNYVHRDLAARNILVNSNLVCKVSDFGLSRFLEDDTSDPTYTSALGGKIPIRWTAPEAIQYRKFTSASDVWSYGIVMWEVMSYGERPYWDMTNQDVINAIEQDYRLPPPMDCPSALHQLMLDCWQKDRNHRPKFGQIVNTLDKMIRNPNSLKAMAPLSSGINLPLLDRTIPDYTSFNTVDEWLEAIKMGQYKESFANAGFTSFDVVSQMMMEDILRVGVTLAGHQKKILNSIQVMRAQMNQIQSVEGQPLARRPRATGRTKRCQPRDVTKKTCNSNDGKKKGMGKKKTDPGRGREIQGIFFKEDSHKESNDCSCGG
Conditions: read-out: %-inhibition at 1 µmol/L, EPHB2.

The target in experiment [2] is T2, panel of 255 wild-type kinases (Homo sapiens, UniProt P51955).
T2 sequence (P51955 1-445): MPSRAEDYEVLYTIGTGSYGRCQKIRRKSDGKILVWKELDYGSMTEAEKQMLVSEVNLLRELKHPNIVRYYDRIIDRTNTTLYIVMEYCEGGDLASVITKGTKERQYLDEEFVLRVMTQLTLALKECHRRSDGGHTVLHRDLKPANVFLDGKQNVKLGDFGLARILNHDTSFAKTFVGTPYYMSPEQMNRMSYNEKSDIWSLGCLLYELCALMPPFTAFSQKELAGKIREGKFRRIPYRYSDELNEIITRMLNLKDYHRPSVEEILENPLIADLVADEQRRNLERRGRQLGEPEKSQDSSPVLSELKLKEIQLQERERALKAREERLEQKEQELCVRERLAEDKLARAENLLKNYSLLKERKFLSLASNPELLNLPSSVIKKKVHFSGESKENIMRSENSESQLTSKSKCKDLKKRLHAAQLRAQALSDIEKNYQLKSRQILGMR
Conditions: read-out: %-inhibition, NEK2.

Experiment [3] has as its target panel of 255 wild-type kinases (Homo sapiens, UniProt Q8TDX7). Conditions: read-out: %-inhibition, NEK7.
Experiment [4] addresses T3, panel of 255 wild-type kinases (Homo sapiens, UniProt P42681).
T3 sequence (P42681 1-527): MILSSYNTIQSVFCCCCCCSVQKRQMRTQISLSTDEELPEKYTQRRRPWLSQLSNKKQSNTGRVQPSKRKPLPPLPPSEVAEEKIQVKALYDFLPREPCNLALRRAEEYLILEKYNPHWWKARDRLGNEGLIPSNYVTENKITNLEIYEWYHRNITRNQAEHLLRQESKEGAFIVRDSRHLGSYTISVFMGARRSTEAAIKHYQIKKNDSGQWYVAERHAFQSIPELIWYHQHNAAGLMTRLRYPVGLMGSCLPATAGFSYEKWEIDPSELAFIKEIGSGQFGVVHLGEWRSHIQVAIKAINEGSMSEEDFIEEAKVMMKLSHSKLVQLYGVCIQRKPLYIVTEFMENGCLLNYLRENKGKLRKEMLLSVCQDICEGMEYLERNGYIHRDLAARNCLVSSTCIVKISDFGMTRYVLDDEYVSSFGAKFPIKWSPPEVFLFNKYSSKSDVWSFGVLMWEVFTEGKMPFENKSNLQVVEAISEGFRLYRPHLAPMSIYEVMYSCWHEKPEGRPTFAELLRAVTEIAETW
Particulars: read-out: %-inhibition at 1 µmol/L, TXK.

Experiment [5] deals with panel of 255 wild-type kinases (Homo sapiens, UniProt Q13131). Particulars: read-out: %-inhibition AMPKα1/β1/γ1.
Experiment [6] concerns the target T4, panel of 255 wild-type kinases (Homo sapiens, UniProt Q08881).
T4 sequence (Q08881 1-620): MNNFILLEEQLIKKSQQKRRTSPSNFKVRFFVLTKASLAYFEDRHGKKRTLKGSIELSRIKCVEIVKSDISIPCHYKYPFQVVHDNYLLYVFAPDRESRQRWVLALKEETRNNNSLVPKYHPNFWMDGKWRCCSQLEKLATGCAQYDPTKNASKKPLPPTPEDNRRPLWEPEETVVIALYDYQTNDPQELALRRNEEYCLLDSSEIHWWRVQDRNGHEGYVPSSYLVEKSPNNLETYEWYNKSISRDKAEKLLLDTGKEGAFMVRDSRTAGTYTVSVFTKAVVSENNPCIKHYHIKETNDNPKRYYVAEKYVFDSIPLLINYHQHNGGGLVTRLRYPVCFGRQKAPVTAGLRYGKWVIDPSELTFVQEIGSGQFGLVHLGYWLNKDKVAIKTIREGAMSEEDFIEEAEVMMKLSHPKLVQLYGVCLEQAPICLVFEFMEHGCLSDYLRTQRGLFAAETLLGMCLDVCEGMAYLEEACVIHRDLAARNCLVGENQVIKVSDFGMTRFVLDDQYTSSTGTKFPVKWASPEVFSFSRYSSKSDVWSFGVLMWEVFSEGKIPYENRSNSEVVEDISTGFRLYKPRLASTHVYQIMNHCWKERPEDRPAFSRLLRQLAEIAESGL
Particulars: read-out: %-inhibition at 1 µmol/L, ITK.

The mark [7] stands for this setting: kinase EPHB2, 1 µmol/L single concentration.
[8] abbreviates: NEK2, 1 µmol/L single concentration.
Where [9] appears, read: NEK7, 1 µmol/L single concentration.
Setting [10] is: kinase TXK, 1 µmol/L single concentration.
[11] abbreviates: AMPKα1/β1/γ1 kinase assay, 1 µmol/L single concentration.
[12] abbreviates: kinase ITK, 1 µmol/L single concentration.

Read-outs that look alike come from different tables or passages of the source.

As to `Cn1cc(-c2cc3c(N4CCN(c5ncc([C@@](C)(N)c6ccc(F)cc6)cn5)CC4)ncnn3c2)cn1` [avapritinib], the inhibition at 1 µM in experiment [1] (setting [7]) is 31%; in experiment [2] (setting [8]) it was 9%; in experiment [3] (setting [9]), -11%; in experiment [4] (setting [10]) it was 20%; in experiment [5] (setting [11]), 9%; in experiment [6] (setting [12]), 19%.

In the case of `C[C@H](Nc1ncnc2nc[nH]c12)c1cc2cccc(Cl)c2c(=O)n1-c1ccccc1` [duvelisib], the inhibition at 1 µM was 2% in experiment [1] (setting [7]); 9% in experiment [2] (setting [8]); -0.791% in experiment [3] (setting [9]); -0.177% in experiment [4] (setting [10]); -4% in experiment [5] (setting [11]); 9% in experiment [6] (setting [12]).

As to `COc1cc2ncnc(Nc3ccc(F)c(Cl)c3)c2cc1NC(=O)/C=C/CN1CCCCC1` [dacomitinib], the inhibition at 1 µM in experiment [1] (setting [7]) was 51%; in experiment [2] (setting [8]), -2.41%; in experiment [3] (setting [9]), -4.37%; in experiment [4] (setting [10]), 80%; in experiment [5] (setting [11]), -12%; in experiment [6] (setting [12]), 24%.

Take `CCN1CCN(c2ccc(Nc3cc(N(C)C(=O)Nc4c(Cl)c(OC)cc(OC)c4Cl)ncn3)cc2)CC1` [infigratinib]: the inhibition at 1 µM in experiment [1] (setting [7]) is -0.114%; in experiment [2] (setting [8]), 27%; in experiment [3] (setting [9]), -3.65%; in experiment [4] (setting [10]), 4.32%; in experiment [5] (setting [11]), -4%; in experiment [6] (setting [12]), 6%.

For `Cn1cnc2c(F)c(Nc3ccc(Br)cc3Cl)c(C(=O)NOCCO)cc21` [selumetinib], the inhibition at 1 µM is -0.445% in experiment [1] (setting [7]); 9% in experiment [2] (setting [8]); -0.844% in experiment [3] (setting [9]); 3.19% in experiment [4] (setting [10]); -2.66% in experiment [5] (setting [11]); 4.28% in experiment [6] (setting [12]).

Regarding `CNC(=O)c1ccc(-c2cnc3ncc(Cc4ccc5ncccc5c4)n3n2)cc1F` [capmatinib], the inhibition at 1 µM was -5% in experiment [1]; 2.36% in experiment [2]; -9% in experiment [3]; 2.34% in experiment [4]; -4.64% in experiment [5]; 5% in experiment [6].

Regarding `COC(=O)N[C@@H](C)CNc1nccc(-c2cn(C(C)C)nc2-c2cc(Cl)cc(NS(C)(=O)=O)c2F)n1` [encorafenib], the inhibition at 1 µM in experiment [1] (setting [7]) is 5.43%; in experiment [2] (setting [8]), 2.77%; in experiment [3] (setting [9]), 5%; in experiment [4] (setting [10]), -3.43%; in experiment [5] (setting [11]), -2.31%; in experiment [6] (setting [12]), 3.49%.

On to `Cc1cc(Nc2ncnc3ccc(NC4=NC(C)(C)CO4)cc23)ccc1Oc1ccn2ncnc2c1` [tucatinib], for which the inhibition at 1 µM is 2.14% in experiment [1] (setting [7]); 2.8% in experiment [2] (setting [8]); -5.58% in experiment [3] (setting [9]); 5% in experiment [4] (setting [10]); -4% in experiment [5] (setting [11]); 1.31% in experiment [6] (setting [12]).

Regarding `C=CC(=O)N1CCC([C@@H]2CCNc3c(C(N)=O)c(-c4ccc(Oc5ccccc5)cc4)nn32)CC1` [zanubrutinib], the inhibition at 1 µM in experiment [1] (setting [7]) was -1.07%; in experiment [2] (setting [8]), -0.59%; in experiment [3] (setting [9]) it was 2%; in experiment [4] (setting [10]), 89%; in experiment [5] (setting [11]), -5.51%; in experiment [6] (setting [12]), 34%.

Take `Cn1cnc2c(F)c(Nc3ccc(Br)cc3F)c(C(=O)NOCCO)cc21` [binimetinib]: the inhibition at 1 µM is 3.33% in experiment [1] (setting [7]); 0.117% in experiment [2] (setting [8]); 2% in experiment [3] (setting [9]); -3% in experiment [4] (setting [10]); -7% in experiment [5] (setting [11]); 1.61% in experiment [6] (setting [12]).

`COc1ccc(CN2C3CC2CN(c2ccc(-c4cc(OCC(C)(C)O)cn5ncc(C#N)c45)cn2)C3)cn1` [selpercatinib]: the inhibition at 1 µM came out at 64% in experiment [1] (setting [7]); 2% in experiment [2] (setting [8]); 1% in experiment [3] (setting [9]); 54% in experiment [4] (setting [10]); 22% in experiment [5] (setting [11]); 79% in experiment [6] (setting [12]).
